Patent EP4810052A2, “HCRHR2 SELECTIVE POLYPEPTIDES” (Gubra A/S, priority 2023, dated 2026)
Starred links: 1 amine or outer side, 2 acyl side, 3 side chain; linkers in the order of their positions; H or OH if unused. Non-standard residues stand in square brackets, D forms with d. Residues, ends and D or L forms follow the SMILES beside them. Groups on a side chain read outwards from the residue. *: point of attachment. C20 diacid = O=C(O)CCCCCCCCCCCCCCCCCCC(=O)*; γGlu = O=C(O)[C@H](CCC(=O)[*:2])N[*:1]; NMeI = CC[C@H](C)[C@H](NC)C(=O)O; AEEA = NCCOCCOCC(=O)O

Tests used:
[1] = target: T1, mCRHR2 (Mus musculus, UniProt Q60748); assay: cAMP potency, transiently transfected CHO-K1 cells, mCRHR2; type: cell-based; conditions: transiently transfected CHO-K1, average n=3; read-out: Transient cell system EC50 (nM) mCRH R2
T1 construct: DYK (FLAG); host or cells: CHO-K1, transiently transfected
T1 sequence (Q60748 1-431 isoform Q60748-2): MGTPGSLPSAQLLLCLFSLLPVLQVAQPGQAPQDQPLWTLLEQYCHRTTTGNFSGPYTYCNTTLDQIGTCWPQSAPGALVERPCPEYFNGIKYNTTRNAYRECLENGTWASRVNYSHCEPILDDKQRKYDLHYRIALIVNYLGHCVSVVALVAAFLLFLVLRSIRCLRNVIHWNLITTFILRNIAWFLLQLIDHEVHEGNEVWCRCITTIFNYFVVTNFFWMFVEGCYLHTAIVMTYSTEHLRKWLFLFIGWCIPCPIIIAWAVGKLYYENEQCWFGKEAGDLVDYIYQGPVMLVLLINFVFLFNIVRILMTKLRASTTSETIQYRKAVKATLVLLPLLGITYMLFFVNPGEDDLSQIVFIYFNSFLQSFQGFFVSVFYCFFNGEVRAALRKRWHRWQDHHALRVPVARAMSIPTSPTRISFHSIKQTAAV
Protocol: Selected peptides were tested for potency on different species (mouse, rat, porcine) using transiently transfected CHO-K1 cells using the general procedure.

[2] = Dynamic Light Scattering (DLS) of peptide oligomerisation/particle formation; type: physicochemical; conditions: for PD (%) / Rh (nm): average of three replica
Protocol: Samples were prepared by dissolving 800 nmol of each peptide in 400 µl 50 mM phosphate pH 8.0 to a concentration of 2000 µM (ca 10 mg/ml). After fully dissolution for 2 hours on a rocking table, samples were adjusted to pH 7.5 and filtrated through a 0.2 µm Whatman Anotop filter. Comparators were commercially available liraglutide drug product (Victoza®, Novo Nordisk) pH 8.2, and an aliquot of this drug product adjusted to pH 6.7. These samples were filtrated through a 0.02 µm Whatman Anotop filter.
Samples were pipetted as triplicate of 30 µl to an Aurora 384 well microtiter plate, which was centrifuged for 2 minutes at 2200 rpm and then sealed with a Thermo sealing tape 235307. DLS measurements were done in a Wyatt DynaPro platereader III with the following parameters:
The microtiter plate was incubated in a Grant-bio Thermo Shaker PHMP-4 at 40°C with 700 rpm continuous shaking before subsequent DLS measurements. Data analysis was done using Wyatt Dynamics software ver. 7.10.1.21.
Samples were prepared and measured as described in procedure. The hydrodynamic radii (Rh) and associated polydispersity (PD) resulting from cumulant analysis (assuming one species) are shown in the Table 8 as averages of three replica. T0 indicates the measurement at time zero after sample preparation; T5 indicates the measurements of five days of incubation as described above.

[3] = Body mass and body fat content in mouse model of diet-induced obesity (DIO); type: in vivo; conditions: DIO mice; for Blood HbA1c / M. Gastrocnemius / M. Soleus / Body weight at termination / Fat mass change from baseline / Lean mass change from baseline / Relative body weight change at termination: Table 17 study; for Body weight at termination / Fat mass change from baseline / Lean mass change from baseline / Relative body weight change at termination: ± SEM
Protocol: SEQ ID NO: 3, SEQ ID NO: 6, SEQ ID NO: 238, SEQ ID NO: 16 and SEQ ID NO: 215 were assessed for their ability to reduce body mass and body fat content in a mouse model of diet-induced obesity (DIO).
Male C57BL/6JRj mice were obtained from JanVier (JanVier Labs, France) at 5 weeks of age. The animals were group-housed during obesity induction and then single housed 2 weeks prior to study start. They were housed under a 12/12 h dark-light cycle, light off at 3 PM. Room temperature was controlled to 22°C ± 1°C, with 60 % ± 20% humidity. For 22-23 weeks prior to treatment start and throughout the study, the animals had ad libitum access to high-fat diet (60% kcal fat, D12492, Research Diets) and tap water.
The animals were randomized according to lean mass (EchoMRI) and body weight. Animals were dosed subcutaneously […] for 30-32 days. In study 1, the animals were dosed with vehicle or SEQ ID NO: 3 (10, 30, 60 or 100 nmol/kg). In study 2, the animals were dosed with vehicle or SEQ ID NO: 6 (10 or 30 nmol/kg), SEQ ID NO: 238 (10 or 30 nmol/kg), SEQ ID NO: 16 (10 or 30 nmol/kg), SEQ ID NO: 215 (10 or 30 nmol/kg) or SEQ ID NO: 3 (30 nmol/kg).
Body weight and food intake were recorded daily until day 28 and body composition evaluated on day 26 using EchoMRI. At termination, blood for HbA1c analyses were collected and M. gastrocnemius and M. soleus were weighed.
Statistical significance was evaluated using One-way analysis of variance with Dunnett's multiple comparison test. P < 0.05 was considered statistically significant.

[4] = Size exclusion chromatography for high molecular weight products (HMWP); type: physicochemical; conditions: for HMWP formation (SEC analysis) T14-T0 (%): 14 days; for HMWP formation (SEC analysis) T28-T0 (%): 28 days
Protocol: Dissolved samples were incubated for at least 2 h at room temperature on a rocking table. The main peak purity at time zero (T0) was determined using reversed phase chromatography. The samples were incubated at 40°C for 14 days (T14) and 28 days (T28). The samples were analyzed with reversed phase chromatography and size exclusion chromatography.
Size exclusion chromatography (SEC) was used as an analysis for the formation of high molecular weight products (HMWP, covalent dimers, trimers etc.,). SEC analyses was performed on Thermo Dionex Ultimate UHPLC system with UV detection at 215 nm) equipped with a SEC column (Waters BEH 125Å, 1.7 µm, 300mm x 4.6). Analysis was performed by isocratic elution using 60% buffer B (0.1% TFA in 5:95 H2O: acetonitrile) in buffer A (0.1% TFA in 95:5 H2O: acetonitrile) at a column temperature of 60° C over 20 min. Flowrate was 0.3 mL/min.
Chromatograms were integrated as HMWP (all peaks eluting before the main peak), main peak (assuming this is monomeric peptide) and if relevant LMWP (low molecular weight products, all peaks eluting after main peak). The amount of HMWP was reported as area relative to total area in percent.

[5] = T0, time zero after sample preparation
[6] = T5, five days incubation at 40°C with continuous shaking

## CC[C@H](C)[C@H](NC)C(=O)N[C@H](C(=O)N[C@@H](CC(C)C)C(=O)N[C@@H](CO)C(=O)N[C@@H](CC(C)C)C(=O)N[C@@H](CC(=O)O)C(=O)N[C@H](C(=O)N1CCC[C@H]1C(=O)N[C@H](C(=O)NCC(=O)N[C@@H](CC(C)C)C(=O)N[C@@H](CC(C)C)C(=O)N[C@@H](CCC(N)=O)C(=O)N[C@H](C(=O)N[C@@H](CC(C)C)C(=O)N[C@@H](CC(C)C)C(=O)N[C@@H](CCC(=O)O)C(=O)N[C@@H](CCC(N)=O)C(=O)N[C@@H](C)C(=O)N[C@@H](CCCNC(=N)N)C(=O)N[C@@H](C)C(=O)N[C@@H](CCCNC(=N)N)C(=O)N[C@@H](C)C(=O)N[C@@H](C)C(=O)N[C@@H](CCCNC(=N)N)C(=O)N[C@@H](CCC(=O)O)C(=O)N[C@@H](CCC(N)=O)C(=O)N[C@@H](C)C(=O)N[C@H](C(=O)N[C@@H](CCCCNC(=O)COCCOCCNC(=O)COCCOCCNC(=O)CC[C@H](NC(=O)CC[C@H](NC(=O)CCCCCCCCCCCCCCCCCCC(=O)O)C(=O)O)C(=O)O)C(=O)N[C@@H](CC(N)=O)C(=O)N[C@@H](C)C(=O)N[C@@H](CCC(=O)O)C(=O)N[C@H](C(=O)N[C@@H](CC(C)C)C(=O)N[C@@H](C)C(=O)N[C@@H](CCC(=O)O)C(=O)N[C@H](C(N)=O)C(C)C)[C@@H](C)CC)[C@@H](C)O)[C@@H](C)CC)[C@@H](C)CC)C(C)C)C(C)C [SEQ ID NO: 6] (H-[NMeI]VLSLDVPIGLLQILLEQARARAAREQATK([AEEA-AEEA-γGlu-γGlu-C20 diacid])NAEILAEV-NH2)
[1]
  EC50: 0.0043 nM
[2]; 2000 µM, pH 7.5, five days incubation at 40°C with continuous shaking
  particle size / hydrodynamic radii (DLS): formed larger particles and several species (multimodal)
[2]; [5]
  PD (%): 38.5%
  Rh (nm): 5.8 nm
[2]; [6]
  PD (%): Multimodal
  Rh (nm): 30.6 nm
[3]; 28 days, compared to vehicle
  relative body weight: prolonged dose-dependent reduction
[3]; 10 nmol/kg
  Blood HbA1c: 4.0 ± 0.1 %
  M. Gastrocnemius: 0.18 ± 0.004 g
  M. Soleus: 0.012 ± 0.0008 g
  Body weight at termination: 42.6 ± 1.3 g
  Fat mass change from baseline: -7.0 ± 0.9 g
  Lean mass change from baseline: 0.1 ± 0.3 g
  Relative body weight change at termination: 89.1 ± 2.0 %
[3]; 30 nmol/kg
  Blood HbA1c: 4.1 ± 0.1 %
  M. Gastrocnemius: 0.18 ± 0.001 g
  M. Soleus: 0.013 ± 0.0004 g
  Body weight at termination: 38 ± 0.5 g
  Fat mass change from baseline: -10.7 ± 0.5 g
  Lean mass change from baseline: -0.1 ± 0.3 g
  Relative body weight change at termination: 79.3 ± 1.2 %
[4]; pH 7.0, 40°C
  HMWP formation (SEC analysis) T14-T0 (%): -0.1%
  HMWP formation (SEC analysis) T28-T0 (%): 0.1%
[4]; pH 7.5, 40°C
  HMWP formation (SEC analysis) T14-T0 (%): -0.4%
  HMWP formation (SEC analysis) T28-T0 (%): -0.4%
[4]; pH 8.0, 40°C
  HMWP formation (SEC analysis) T14-T0 (%): -0.2%
  HMWP formation (SEC analysis) T28-T0 (%): 0.0%
